Active and inactive are the calls of the source.
Assays:
[1] = viability loss in THP-1 monocytes – THP-1 cells, cytotoxicity control for Vif-APOBEC3G degradation inhibitor project, dose response (AID 1117359); format: functional; details: THP-1
[2] = target: T1, Mannose-6-phosphate isomerase (Homo sapiens, UniProt P34949); assay: MPI enzyme activity inhibition – biochemical, fluorescence intensity, coupled assay, primary screen (AID 1209)
T1 sequence (P34949 whole entry): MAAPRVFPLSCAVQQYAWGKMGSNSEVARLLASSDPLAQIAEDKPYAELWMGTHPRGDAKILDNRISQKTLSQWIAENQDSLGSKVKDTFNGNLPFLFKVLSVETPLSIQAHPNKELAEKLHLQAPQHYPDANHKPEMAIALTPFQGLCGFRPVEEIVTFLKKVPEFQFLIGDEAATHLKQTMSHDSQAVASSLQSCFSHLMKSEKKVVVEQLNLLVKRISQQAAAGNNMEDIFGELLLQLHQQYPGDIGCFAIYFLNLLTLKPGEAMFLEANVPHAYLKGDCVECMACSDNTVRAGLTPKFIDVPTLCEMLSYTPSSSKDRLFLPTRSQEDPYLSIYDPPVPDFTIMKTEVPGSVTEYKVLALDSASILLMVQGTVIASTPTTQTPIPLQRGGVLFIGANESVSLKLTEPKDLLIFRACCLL

Large T antigen = Large T antigen (Simian virus 40, UniProt P03070); format: functional, Betapolyomavirus macacae;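 further: Confirmatory-stage PubChem screen for compounds that inhibit SV40 T antigen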
[3] = NIH3T3 cell viability loss – ATP luminescence, mouse fibroblasts, counter-screen, dose response (AID 2010); format: functional, cell-based;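 further: cells exposed to compound for about 90 hours before reading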
[4] = HEK-293T viability loss after treatment – luminescence, T-cell screen hits, cytotoxicity control for TCR NF-kB inhibitor project, dose response (AID 489026); format: functional, cell-based;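 further: cells exposed to compound about 14 hours before the viability readout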
Vero [5] = assay: cells; format: functional; details: Chlorocebus sabaeus
[6] = Trypanosoma cruzi growth suppression in host cells – NIH3T3 host cells, beta-gal luminescence, confirmation (AID 2044); format: functional, cell-based;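 further: intracellular parasites grown in NIH/3T3 mouse fibroblasts as host cells; luminescent beta-galactosidase reporter signal from transgenic T. cruzi replicating inside host cells; inhibitors lower the luminescence signal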
Vero [7] = assay: mammalian cell viability reduction – secondary assay, cytotoxicity control for West Nile virus antiviral project, dose response (AID 1650); format: functional; details: Chlorocebus sabaeus
[8] = A High Throughput Confirmatory Assay used to Identify Novel Compounds that Inhibit Mycobacterium Tuberculosis in the absence of Glycerol.; format: functional
[9] = target: T2, Tyrosine-protein phosphatase non-receptor type 7 (Homo sapiens, UniProt P35236); assay: HePTP tyrosine phosphatase activity blockers – biochemical, absorbance, leukemia target, primary screen (AID 521); format: functional
T2 sequence (P35236 whole entry): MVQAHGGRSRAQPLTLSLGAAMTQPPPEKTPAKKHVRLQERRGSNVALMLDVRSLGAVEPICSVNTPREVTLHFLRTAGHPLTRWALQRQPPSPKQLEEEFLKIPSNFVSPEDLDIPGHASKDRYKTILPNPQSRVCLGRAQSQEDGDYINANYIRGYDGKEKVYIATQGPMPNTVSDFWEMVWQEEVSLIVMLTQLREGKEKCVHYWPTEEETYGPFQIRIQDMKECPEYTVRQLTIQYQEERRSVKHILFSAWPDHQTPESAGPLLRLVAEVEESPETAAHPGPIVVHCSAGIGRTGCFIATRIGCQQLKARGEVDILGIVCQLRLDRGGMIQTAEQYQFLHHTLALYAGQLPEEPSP

[10] = Luminescence Cell-Based Dose Retest to Confirm Inhibitors of Cancer Stem Cells. [Related pubchem assays (depositor defined):AID2717, AID2721]; format: functional; details: Homo sapiens
[11] = Luminescence-based dose response cell-based high throughput screening assay for cytotoxic compounds using the IEC-6 intestinal epithelial cell line. [Related pubchem assays: 1858 (Summary AID.), 1825 (Counterscreen.), 1907 (Confirmation screen.)]; format: functional
Cytochrome P450 2C9 = Cytochrome P450 2C9 (Homo sapiens, UniProt P11712); details: Potency
Cytochrome P450 2C19 = Cytochrome P450 2C19 (Homo sapiens, UniProt P33261); assay: qHTS Assay for Inhibitors and Substrates of Cytochrome P450 2C19. [Related pubchem assays: 410 ]; format: ADME; details: read-out: Potency
Cytochrome P450 2C19, sequence (P33261 whole entry): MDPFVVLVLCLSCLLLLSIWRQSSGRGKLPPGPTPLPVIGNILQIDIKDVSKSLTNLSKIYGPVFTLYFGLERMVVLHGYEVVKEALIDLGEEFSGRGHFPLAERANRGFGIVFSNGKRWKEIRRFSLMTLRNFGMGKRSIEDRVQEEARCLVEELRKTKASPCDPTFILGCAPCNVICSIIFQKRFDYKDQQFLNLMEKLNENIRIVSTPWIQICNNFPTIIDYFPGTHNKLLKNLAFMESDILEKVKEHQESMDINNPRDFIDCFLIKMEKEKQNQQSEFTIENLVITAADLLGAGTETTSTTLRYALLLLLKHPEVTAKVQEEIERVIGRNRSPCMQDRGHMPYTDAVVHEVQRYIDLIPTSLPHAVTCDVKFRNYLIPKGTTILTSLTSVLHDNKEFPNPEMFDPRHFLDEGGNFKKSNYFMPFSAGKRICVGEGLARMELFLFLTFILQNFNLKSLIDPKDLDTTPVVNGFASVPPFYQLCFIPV

Cytochrome P450 2C9, sequence (P11712 whole entry): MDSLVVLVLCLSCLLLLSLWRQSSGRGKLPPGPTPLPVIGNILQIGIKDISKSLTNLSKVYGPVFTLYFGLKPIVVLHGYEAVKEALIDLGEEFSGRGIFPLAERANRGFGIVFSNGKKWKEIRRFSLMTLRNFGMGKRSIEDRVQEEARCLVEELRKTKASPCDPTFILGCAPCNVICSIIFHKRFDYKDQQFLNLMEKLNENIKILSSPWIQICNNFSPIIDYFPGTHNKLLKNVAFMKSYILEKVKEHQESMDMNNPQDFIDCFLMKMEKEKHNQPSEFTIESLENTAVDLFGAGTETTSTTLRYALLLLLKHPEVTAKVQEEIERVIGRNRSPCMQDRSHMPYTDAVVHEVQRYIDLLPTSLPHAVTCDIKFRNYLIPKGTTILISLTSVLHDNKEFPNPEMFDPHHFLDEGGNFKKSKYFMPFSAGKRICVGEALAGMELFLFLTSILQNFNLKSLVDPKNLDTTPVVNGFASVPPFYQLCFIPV
Large T antigen, sequence (P03070 whole entry): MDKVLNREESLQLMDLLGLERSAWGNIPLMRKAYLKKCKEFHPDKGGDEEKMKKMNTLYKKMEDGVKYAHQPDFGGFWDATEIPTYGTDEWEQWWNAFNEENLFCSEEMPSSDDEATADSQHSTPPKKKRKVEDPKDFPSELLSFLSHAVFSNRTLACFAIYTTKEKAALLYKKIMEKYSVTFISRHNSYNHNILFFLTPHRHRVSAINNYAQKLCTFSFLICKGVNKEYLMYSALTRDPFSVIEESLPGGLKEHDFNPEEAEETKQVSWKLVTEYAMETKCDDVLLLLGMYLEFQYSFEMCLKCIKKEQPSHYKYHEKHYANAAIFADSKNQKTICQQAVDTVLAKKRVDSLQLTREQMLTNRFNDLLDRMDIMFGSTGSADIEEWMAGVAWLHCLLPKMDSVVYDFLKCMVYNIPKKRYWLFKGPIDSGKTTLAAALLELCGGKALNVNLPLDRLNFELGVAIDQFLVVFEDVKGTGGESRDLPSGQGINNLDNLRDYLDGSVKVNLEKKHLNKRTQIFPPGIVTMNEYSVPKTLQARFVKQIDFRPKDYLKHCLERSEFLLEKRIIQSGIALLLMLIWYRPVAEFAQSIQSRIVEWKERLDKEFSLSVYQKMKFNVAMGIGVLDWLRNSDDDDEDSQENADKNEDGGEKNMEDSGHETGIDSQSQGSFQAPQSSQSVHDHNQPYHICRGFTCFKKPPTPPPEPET

COc1cccc(-n2c(/C=C/c3ccc(O)c(O)c3)nc3ccccc3c2=O)c1
CC50 [1]: 23.1 µM (active) | IC50 [2]: > 50 µM (not active) | IC50 (Large T antigen): > 100 µM (active)

C=C(C)[C@@]12OC3(c4ccccc4)O[C@@H]1C1[C@@H]4O[C@]4(CO)[C@@H](O)[C@]4(O)C(=O)C(C)=C[C@H]4[C@@]1(O3)[C@H](C)[C@H]2OC(=O)/C=C/C=C/c1ccccc1 (stereo partly specified)
EC50 (cells): < 0.004 µM (active) | EC50 [3]: > 60 µM (not active) | IC50 [4]: > 80 µM (inactive) | CC50 (Vero [5]): > 25 µM (active) | EC50 [6]: < 0.1 µM (active) | CC50 (Vero [7]): > 100 µM (active)

COc1cc2cc(C(c3nnnn3C(C)(C)C)N3CCc4ccccc43)c(O)nc2cc1OC (stereo unspecified)
IC50 [8]: > 100 µM (active)

O=C(CCCn1c(=O)[nH]c2cc(Cl)ccc2c1=O)NCCN1CCN(c2ccccc2)CC1
IC50 [9]: > 100 µM (not active)

COC(=O)C(Cc1ccc(N(CCCl)CCCl)cc1)/N=C/c1ccccc1O (stereo unspecified)
AC50 [10]: 0.899 µM (active) | IC50 [4]: > 80 µM (inactive) | IC50 [11]: 0.103 µM (active)

COc1cc2ccc(=O)oc2c(O)c1O [FRAXETIN]
AC50 (Cytochrome P450 2C9): 25.1 µM (inconclusive) | AC50 (Cytochrome P450 2C19): 39.8 µM (inconclusive)
